Experimental data as given in patent publication US8628771B2, “CA IX-specific inhibitors” (Institute of Virology Slovak Academy of Sciences, priority 2002, dated 2014).
Like-named read-outs stand apart in the source and are kept apart here.

Tests used:
bCA IV = target: T1, bCA IV (Bos taurus, UniProt Q95323); assay: CA esterase activity assay, isozyme bCA IV; assay type: biochemical, bovine
T1 construct: CA IV was isolated from bovine lung microsomes as described by Maren et al; from tissue; host or cells: bovine lung microsomes
T1 sequence (Q95323 19-284): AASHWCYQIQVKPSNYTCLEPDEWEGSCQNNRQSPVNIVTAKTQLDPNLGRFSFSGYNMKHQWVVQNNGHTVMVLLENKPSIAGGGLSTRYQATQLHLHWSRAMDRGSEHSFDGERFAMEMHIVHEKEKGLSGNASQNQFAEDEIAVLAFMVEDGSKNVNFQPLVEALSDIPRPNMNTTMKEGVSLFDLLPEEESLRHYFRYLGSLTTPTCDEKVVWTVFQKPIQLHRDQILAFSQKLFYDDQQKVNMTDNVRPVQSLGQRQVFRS

hCA I = target: T2, hCA I (Homo sapiens, UniProt P00915); assay: CA esterase activity assay, isozyme hCA I; assay type: biochemical
T2 construct: made in house; host or cells: Escherichia coli BL21 (DE3)
T2 sequence (P00915 whole entry): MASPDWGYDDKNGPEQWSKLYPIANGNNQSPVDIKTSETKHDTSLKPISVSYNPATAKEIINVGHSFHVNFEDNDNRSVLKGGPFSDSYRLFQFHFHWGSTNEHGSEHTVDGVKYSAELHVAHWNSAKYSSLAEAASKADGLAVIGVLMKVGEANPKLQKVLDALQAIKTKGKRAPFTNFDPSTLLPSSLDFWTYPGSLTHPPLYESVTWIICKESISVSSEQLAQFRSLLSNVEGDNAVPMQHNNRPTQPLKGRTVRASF

hCA IX = hCA IX (Homo sapiens, UniProt Q16790); assay: CA CO2 hydrase activity assay, tumor-associated isozyme hCA IX
hCA II = target: T3, hCA II (Homo sapiens, UniProt P00918); assay: CA esterase activity assay, isozyme hCA II; assay type: biochemical
T3 construct: made in house; host or cells: Escherichia coli BL21 (DE3)

[1] = Table 2, from bovine lung microsomes, read-out: KI bCA IV
[2] = Table 2, human (cloned) isozymes, read-out: KI hCA I
[3] = read-out: KI hCA IX, Table 2, catalytic domain of the human, cloned isozyme
[4] = Table 2, human (cloned) isozymes, read-out: KI hCA II
[5] = Table 3, from bovine lung microsomes, esterase assay method, read-out: KI bCA IV
[6] = Table 3, human (cloned) isozymes, esterase assay method, read-out: KI hCA I
[7] = KI against CA IX, text discussion of Tables 1-3
[8] = read-out: KI hCA IX, Table 3, catalytic domain of the human, cloned isozyme, CO2 hydrase assay method
[9] = Table 3, human (cloned) isozymes, esterase assay method, read-out: KI hCA II
[10] = Tables 1 and 3, read-out: KI against CA II
[11] = Table 3, read-out: KI against CA IV

Structure (SMILES)	Ki (bCA IV; [1]) [nM]	Ki (hCA I; [2]) [nM]	Ki (hCA IX) [nM]	Ki (hCA IX; [3]) [nM]	Ki (hCA II; [4]) [nM]	other results
CCc1cc(-c2ccccc2)cc(CC)[n+]1CCc1ccc(S(N)(=O)=O)cc1 [Compound 59]	21	1000	< 10	8	9	
CC(C)c1cc(-c2ccccc2)cc(C(C)C)[n+]1-c1ccc(S(=O)(=O)Nc2nnc(S(N)(=O)=O)s2)cc1 [Compound 79, 1-N-[5-Sulfamoyl-1,3,4-thiadiazol-2-yl-(aminosulfonyl-4-phenyl)]-2,6-di-isopropyl-4-phenylpyridinium perchlorate]						Ki (bCA IV; [5]): 4.1 nM; Ki (hCA I; [6]): 5 nM; Ki (hCA IX; [7]): 12 to 35 nM; Ki (hCA IX; [8]): 30 nM; Ki (hCA II; [9]): 1.61 nM; Ki (hCA II; [10]): 0.2 to 1.61 nM
Cc1cc(C(C)C)[n+](Cc2ccc(S(N)(=O)=O)cc2)c(C(C)C)c1 [Compound 41]	144	11000		54	80	
CCCc1cc(-c2ccccc2)cc(CCC)[n+]1CCc1ccc(S(N)(=O)=O)cc1 [Compound 60]	82	7000	160 to 450	205	42	
CCc1cc(-c2ccccc2)cc(CC)[n+]1Cc1ccc(S(N)(=O)=O)cc1 [Compound 43]	52	2000		29	21	
CCCc1cc(-c2ccccc2)cc(-c2ccccc2)[n+]1Cc1ccc(S(N)(=O)=O)cc1 [Compound 48]	1260	130000		85	390	
CCCc1cc(-c2ccccc2)cc(-c2ccccc2)[n+]1CCc1ccc(S(N)(=O)=O)cc1 [Compound 64]		112000		84	270	Ki (bCA IV; read-out: KI bCA IV): 1060 nM
NS(=O)(=O)c1ccc(C[n+]2c(-c3ccccc3)cc(-c3ccccc3)cc2-c2ccccc2)cc1 [Compound 52]	1960	280000	64 to 135	120	472	
NS(=O)(=O)c1ccc(C[n+]2c(-c3ccccc3)cccc2-c2ccccc2)cc1 [Compound 53]	1950	280000	64 to 135	106	493	
Cc1c(-c2ccccc2)cc(C)[n+](-c2ccc(S(=O)(=O)Nc3nnc(S(N)(=O)=O)s3)cc2)c1C [Compound 90]						Ki (bCA IV; [5]): 5.2 nM; Ki (bCA IV; [11]): 5.2 to 10.3 nM; Ki (hCA I; [6]): 3 nM; Ki (hCA IX; [7]): 12 to 35 nM; Ki (hCA IX; [8]): 15 nM; Ki (hCA II; [9]): 1.24 nM
Cc1cc(-c2ccccc2)cc(-c2ccccc2)[n+]1Cc1ccc(S(N)(=O)=O)cc1 [Compound 46]	161	32000		64		Ki (hCA II; read-out: KI hCA II): 121 nM

More lines, main results first:

Ki (bCA IV; [1]) [nM]	Ki (hCA I; [2]) [nM]	Ki (hCA IX) [nM]	Ki (hCA IX; [3]) [nM]	Ki (hCA II; [4]) [nM]	Structure (SMILES)	other results
		12 to 35			Cc1cc(C(C)(C)C)[n+](-c2ccc(S(=O)(=O)Nc3nnc(S(N)(=O)=O)s3)cc2)c(C(C)(C)C)c1 [Compound 74]	Ki (bCA IV; [5]): 9.4 nM; Ki (bCA IV; [11]): 5.2 to 10.3 nM; Ki (hCA I; [6]): 11 nM; Ki (hCA I; Table 3, read-out: KI against CA I): 7 to 12 nM; Ki (hCA IX; [8]): 34 nM; Ki (hCA II; [9]): 3.13 nM; Ki (hCA II; [10]): 3.13 to 5.96 nM
1300	43000		450	400	CCc1cc(-c2ccccc2)cc(-c2ccccc2)[n+]1-c1ccc(S(N)(=O)=O)cc1 [Compound 33]	
		12 to 35			NS(=O)(=O)c1nnc(NS(=O)(=O)c2ccc(-[n+]3c(-c4ccccc4)cccc3-c3ccccc3)cc2)s1 [Compound 88, 1-N-[5-Sulfamoyl-1,3,4-thiadiazol-2-yl-(aminosulfonyl-4-phenyl)]-2,6-diphenylpyridinium perchlorate]	Ki (bCA IV; [5]): 5.4 nM; Ki (bCA IV; [11]): 5.2 to 10.3 nM; Ki (hCA I; [6]): 5 nM; Ki (hCA IX; [8]): 16 nM; Ki (hCA II; [9]): 4.93 nM; Ki (hCA II; [10]): 3.13 to 5.96 nM
20	1000		6	8	Cc1cc(-c2ccccc2)cc(C)[n+]1CCc1ccc(S(N)(=O)=O)cc1 [Compound 58]	Ki (hCA IX; [7]): < 10 nM
852	40000		280	210	Cc1cc(-c2ccccc2)cc(-c2ccccc2)[n+]1-c1ccc(S(N)(=O)=O)cc1 [Compound 32]	
